Consider nine compounds from US7399784B2, “Tocopherol and tocotrienol anti-obesity medicaments” (Children's Hospital & Research Center at Oakland, priority 2002, dated 2008).

Series [1] relates to embryonic cell (C3H10T1/2). The series can be described thus: Adipocyte differentiation of C3H10T1/2 cells induced with insulin plus drugs. It is filed as cell-based. The note with it: differentiation induced with insulin plus indomethacin, troglitazone or 15-deoxy-delta(12,14)-prostaglandin-J2. The text has this:
For these example, differentiation was induced in the presence of insulin with drugs, including indomethacin, and troglitazone, one of the anti-diabetes drugs of the thiazolidinedione family, as well as 15-deoxy-delta (12, 14)-prostaglandin-J2, a putative endogenous ligand for the peroxisome proliferator-activated receptor-gamma. Our results clearly indicate that tocopherols and tocotrienols inhibit adipogenesis.

The test system of the next series is leptin. The conditions noted are these: healthy individuals; Ismermann et al. 1999; cited from earlier work.
For the next series, the system named is adipocytes. Nature of the series: Weight gain and adipocyte triglyceride accumulation in mice fed a high-fat diet. It is filed as in vivo, BALB/c mice. The note with it: food admixture 0.1%, 3%, 0.02% or 0.01%. How it is done:
We evaluate weight gain and triglyceride accumulation in adipocytes in mice fed a high-fat diet. Six-week-old BALB/c mice are fed powdered chow with various tocopherols and tocotrienols and mixtures thereof, as 0.1%, 3%, 0.02%, or 0.01% food admixtures. For histological analysis of adipose and hepatic tissues and determination of adipocyte size, adipose tissue is removed from each animal and fixed in 10% formaldehyde/PBS and maintained at 4° C. until use. Fixed specimens are dehydrated, embedded in tissue-freezing medium and frozen in dry ice and acetone. White adipose tissue is cut into 10-μm sections, and the sections mounted on silanized slides. The adipose tissue is stained with hematoxylin and eosin (H&E). Mature white adipocytes are identified by their characteristic […] appearance. Total adipocyte areas are traced manually and analyzed with Win ROOF software (Mitani Co. Ltd., Chiba, Japan). White adipocyte areas are measured in 400 or more cells per mouse in each group according to methods previously described (Kubota, N. et al.1999, Mol. Cell. 4:597-609).

Another series has as its system insulin-secreting cells. The conditions noted are these: Sjoholm et al. 2000; cited from earlier work.
The conditions of series [2]: treatment of diabetes; Malinowski et al. 2000; cited from earlier work.

As for `Cc1c(C)c2c(c(C)c1O)CC[C@@](C)(CCC[C@H](C)CCC[C@H](C)CCCC(C)C)O2` [alpa-T, alpha-tocopherol, reference compound], in series [1], the “anti-adipogenesis activity (inhibition of differentiation to adipocytes)” value is “much less effective” and the intracellular triglyceride accumulation result was “much less effective”. For the same compound, the leptin expression entry in the series with leptin is given as “induces leptin expression”.

On to `Cc1cc(O)cc2c1O[C@](C)(CCC[C@H](C)CCC[C@H](C)CCCC(C)C)CC2` [delta-T, delta-tocopherol], for which, in series [1], the “anti-adipogenesis activity (inhibition of differentiation to adipocytes)” value is listed as “dose-dependent anti-adipogenesis activity” and the intracellular triglyceride accumulation entry was “decrease intracellular triglyceride accumulation”. Also, in the series with adipocytes, the “triglyceride accumulation in adipocytes” value is “reduced triglyceride accumulation in adipocytes” and the weight gain entry is on record as “reduced weight gain”.

Take `CC(C)=CCC/C(C)=C/CC/C(C)=C/CC[C@]1(C)CCc2cc(O)cc(C)c2O1` [delta-tocotrienol]: in series [1], the “anti-adipogenesis activity (inhibition of differentiation to adipocytes)” value is given as “dose-dependent anti-adipogenesis activity” and the intracellular triglyceride accumulation entry is listed as “decrease intracellular triglyceride accumulation”. For the same compound, in the series with adipocytes, the “triglyceride accumulation in adipocytes” value was “reduced triglyceride accumulation in adipocytes” and the weight gain result is “reduced weight gain”.

In the case of `Cc1c(O)cc2c(c1C)O[C@](C)(CCC[C@H](C)CCC[C@H](C)CCCC(C)C)CC2` [gamma-T, gamma-tocopherol], in series [1], the “anti-adipogenesis activity (inhibition of differentiation to adipocytes)” value is reported as “dose-dependent anti-adipogenesis activity” and the intracellular triglyceride accumulation result is “decrease intracellular triglyceride accumulation”. For the same compound, the “protection against functional inhibition by nitric oxide” value in the series with insulin-secreting cells is on record as “partially protects”. Further, in the series with adipocytes, the “triglyceride accumulation in adipocytes” value is “reduced triglyceride accumulation in adipocytes” and the weight gain result is “reduced weight gain”.

As to `CC(C)=CCC/C(C)=C/CC/C(C)=C/CC[C@]1(C)CCc2cc(O)c(C)c(C)c2O1` [gamma-tocotrienol], in series [1], the “anti-adipogenesis activity (inhibition of differentiation to adipocytes)” value was “dose-dependent anti-adipogenesis activity” and the intracellular triglyceride accumulation entry is listed as “decrease intracellular triglyceride accumulation”. Moreover, in the series on adipocytes, the “triglyceride accumulation in adipocytes” value is on record as “reduced triglyceride accumulation in adipocytes” and the weight gain entry was “reduced weight gain”.

As for `CCc1ccc(CCOc2ccc(CC3SC(=O)NC3=O)cc2)nc1` (stereo not drawn) [proglitazone], the “weight gain and obesity” value in series [2] was “commonly leads to weight gain and obesity”.

Turning to `CN(CCOc1ccc(CC2SC(=O)NC2=O)cc1)c1ccccn1` (stereo not drawn) [rosiglitazone], the “weight gain and obesity” value in series [2] is “commonly leads to weight gain and obesity”.

`Cc1c(C)c2c(c(C)c1O)CCC(C)(COc1ccc(CC3SC(=O)NC3=O)cc1)O2` (stereo not drawn) [troglitazone]: the “weight gain and obesity” value in series [2] is “commonly leads to weight gain and obesity”.

Turning to alpha-tocotrienol, in series [1], the “anti-adipogenesis activity (inhibition of differentiation to adipocytes)” value is reported as “dose-dependent anti-adipogenesis activity” and the intracellular triglyceride accumulation entry was “decrease intracellular triglyceride accumulation”. Further, in the series with adipocytes, the “triglyceride accumulation in adipocytes” value is “reduced triglyceride accumulation in adipocytes” and the weight gain entry is reported as “reduced weight gain”.
